Data: paper PMC8619046, “ABCB1 and ABCG2 Control Brain Accumulation and Intestinal Disposition of the Novel ROS1/TRK/ALK Inhibitor Repotrectinib, While OATP1A/1B, ABCG2, and CYP3A Limit Its Oral Availability” (Pharmaceutics, 2021)
Several values for one entry are separate records, joined by “and”; a condition that tells them apart may be missing. Identical values can stand only once. Like-named read-outs stand apart in the source and are kept apart here.

Legend:
[1] = 4-h oral plasma pharmacokinetics and tissue distribution, male wild-type and ABC transporter knockout mice; assay type: in vivo; settings: 10 mg/kg oral; for AUC(0-t) / Kp at 4 h / concentration at 4 h / Cmax / Tmax: FVB, mouse; for AUC(0-t) / Cmax / Tmax: plasma; for AUC(0-t): read-out: AUC0–4h; for Fold change Cliver / Fold change SIC (% of dose) / Fold change ratio (SIC (%)-to-plasma) / Fold change ratio (liver-to-plasma) / Fold change ratio (testis-to-plasma) / Fold increase Cbrain / Fold increase Ctestis / Fold change ratio (brain-to-plasma) / Fold increase AUC0–4h: vs wild-type; for Tmax: median (range)
Description: (§1) Mice with similar average ages (and body weights) were randomly allocated in experimental groups as far as possible. Mice were maintained in a temperature-controlled and specific pathogen-free environment with a 12-h light and 12-h dark cycle and they received a standard diet (Transbreed, SDS Diets, Technilab-BMI, Someren, The Netherlands) and acidified water ad libitum. […] Given the objective main readout (repotrectinib plasma and tissue concentrations as measured by LC-MS/MS), no blinding method was applied.
Repotrectinib was dissolved in dimethyl sulfoxide (DMSO) at a concentration of 50 mg/mL. This stock solution was first diluted 3-fold with ethanol/polysorbate 80 (1/1; v/v), followed by further dilution with a 10 mM hydrochloric acid solution, yielding a dosing solution of 1 mg/mL, freshly prepared on the day of experiment. Final concentrations of the solvents in the administration solution were: 2%, 2%, 2%, and 94% (all v/v) for DMSO, ethanol, polysorbate 80, and 10 mM hydrochloric acid solution, respectively.
To minimize variation in absorption upon oral administration, mice were fasted for 2–3 h before repotrectinib (10 mg/kg body weight) was administered by gavage into the stomach at 10 µL/g body weight, with a blunt-ended needle. Tail vein serial blood samples were collected at 0.125, 0.25, 0.5, 1, 2 and 4 h using heparinized capillary tubes (Sarstedt, Nümbrecht, Germany) for the 8-h experiments. For the 4- and 2-h experiments, blood samplings were performed from the tail vein with the same schedule, but terminated at 2 and 1 h, respectively. Eight, four, or two hours after oral administration, mice were deeply anesthetized with 2–3% isoflurane, followed by cardiac puncture to collect blood in Eppendorf tubes containing heparin as an anticoagulant. Brain, liver, spleen, kidney, lung, small intestine, and testis were rapidly collected after sacrificing the mice by cervical dislocation. The small intestinal contents (SIC) were separated from small intestinal tissue (SI), which was flushed and rinsed with cold saline to remove any residual feces. Brain, liver, spleen, kidney, lung, SI, SIC, and testis were homogenized with 1, 3, 1, 2, 1, 3, 2, and 1 mL of 2% BSA (w/v), respectively. Plasma fraction was isolated from blood by centrifugation at 9000× g for 6 min at 4 °C. All samples were stored at −30 °C until analysis.
(§2) A sensitive and specific liquid chromatography-tandem mass spectrometry method using protein precipitation pre-treatment was adopted to quantify the concentration of repotrectinib in DMEM medium, plasma samples and tissue homogenates.
A non-compartmental model using the PKSolver add-in program for Microsoft Excel was adopted to calculate the pharmacokinetic parameters of repotrectinib. Oral availability was assessed by the plasma area under the curve (AUC), calculated using repotrectinib plasma concentration-time curves with the linear trapezoidal rule without extrapolating the infinity. Statistical testing was performed in Graphpad Prism7 (Graphpad Software, La Jolla, CA, USA). All data are presented as geometric means ± SD. Heteroscedastic data were log-transformed before applying statistical analysis. When differences between two groups were compared, the two-sided unpaired Student’s t test was used. One-way analysis of variance (ANOVA) was applied when multiple groups were compared, and the Bonferroni post hoc correction was used to accommodate multiple testing. Differences were considered statistically significant when P < 0.05.

[2] = Oral plasma pharmacokinetics compared across experiments and mouse strains; assay type: in vivo, mice
Description: as §1
Repotrectinib was dissolved in dimethyl sulfoxide (DMSO) at a concentration of 50 mg/mL. […]
as §2
A non-compartmental model using the PKSolver add-in program for Microsoft Excel was adopted to calculate the pharmacokinetic parameters of repotrectinib. Oral availability was assessed by the plasma area under the curve (AUC), calculated using repotrectinib plasma concentration-time curves with the linear trapezoidal rule without extrapolating the infinity. […]

[3] = system: ROS1-positive advanced NSCLC; settings: cited from earlier work; for confirmed objective response rate (ORR): preliminary TRIDENT-1 data
[4] = male Abcb1a/1b;Abcg2−/− mice, 4 h
[5] = male Abcb1a/1b;Abcg2−/− mice, 4 h, 10 mg/kg
[6] = male Abcb1a/1b−/− mice, 4 h, 10 mg/kg
[7] = male, po, 10 mg/kg, male Abcb1a/1b;Abcg2−/− mice, 4 h
[8] = male, po, 10 mg/kg, male Abcb1a/1b−/− mice, 4 h
[9] = male, po, 10 mg/kg, male Abcg2−/− mice, 4 h
[10] = male, po, 10 mg/kg, male wild-type mice, 4 h

C[C@H]1CNC(=O)c2cnn3ccc(nc23)N[C@H](C)c2cc(F)ccc2O1 [repotrectinib]
Small intestinal content recovery, fold decrease ([1]; Abcb1a/1b;Abcg2−/− mice vs wild-type): 13.6 fold | Small intestinal content recovery, fold decrease ([1]; Abcb1a/1b−/− mice vs wild-type): 4.9 fold | reduction of liver-to-plasma ratio ([1]; Abcg2−/− and Abcb1a/1b;Abcg2−/− mice compared to wild-type mice, 4 h): 30–35% | AUC(0-t) ([1]; male Abcg2−/− mice, 4 h): 11900 ± 1420 ng·h/mL | Fold change Cliver [1, 4]: 1.37 | Fold change SIC (% of dose) [1, 4]: 0.07 | Fold change ratio (SIC (%)-to-plasma) [1, 4]: 0.03 | Fold change ratio (liver-to-plasma) [1, 4]: 0.69 | Fold change ratio (testis-to-plasma) [1, 4]: 5.6 | Fold increase Cbrain [1, 4]: 29.1 | Fold increase Ctestis [1, 4]: 10.8 | Fold change ratio (brain-to-plasma) [1, 5]: 14 and 14.2 | Fold increase AUC0–4h [1, 5]: 2.0 | Fold change Cliver ([1]; male Abcb1a/1b−/− mice, 4 h): 0.84 | Fold change SIC (% of dose) ([1]; male Abcb1a/1b−/− mice, 4 h): 0.20 | Fold change ratio (SIC (%)-to-plasma) ([1]; male Abcb1a/1b−/− mice, 4 h): 0.21 | Fold change ratio (liver-to-plasma) ([1]; male Abcb1a/1b−/− mice, 4 h): 0.85 | Fold change ratio (testis-to-plasma) ([1]; male Abcb1a/1b−/− mice, 4 h): 2.42 | Fold increase AUC0–4h ([1]; male Abcb1a/1b−/− mice, 4 h): 1.32 | Fold increase Ctestis ([1]; male Abcb1a/1b−/− mice, 4 h): 2.45 | Fold change ratio (brain-to-plasma) [1, 6]: 4.1 and 4.13 | Fold increase Cbrain [1, 6]: 4.1 and 4.14 | Fold change Cliver ([1]; male Abcg2−/− mice, 4 h): 1.01 | Fold change SIC (% of dose) ([1]; male Abcg2−/− mice, 4 h): 0.87 | Fold change ratio (SIC (%)-to-plasma) ([1]; male Abcg2−/− mice, 4 h): 0.54 | Fold change ratio (brain-to-plasma) ([1]; male Abcg2−/− mice, 4 h): 0.93 | Fold change ratio (liver-to-plasma) ([1]; male Abcg2−/− mice, 4 h): 0.65 | Fold change ratio (testis-to-plasma) ([1]; male Abcg2−/− mice, 4 h): 0.71 | Fold increase Cbrain ([1]; male Abcg2−/− mice, 4 h): 1.41 | Fold increase Ctestis ([1]; male Abcg2−/− mice, 4 h): 1.07 | Fold increase AUC0–4h ([1]; male Abcg2−/− mice, 4 h, 10 mg/kg): 1.7 | Fold change Cliver ([1]; male wild-type mice, 4 h): 1.00 | Fold change SIC (% of dose) ([1]; male wild-type mice, 4 h): 1.00 | Fold change ratio (SIC (%)-to-plasma) ([1]; male wild-type mice, 4 h): 1.00 | Fold change ratio (brain-to-plasma) ([1]; male wild-type mice, 4 h): 1.00 | Fold change ratio (liver-to-plasma) ([1]; male wild-type mice, 4 h): 1.00 | Fold change ratio (testis-to-plasma) ([1]; male wild-type mice, 4 h): 1.00 | Fold increase AUC0–4h ([1]; male wild-type mice, 4 h): 1.00 | Fold increase Cbrain ([1]; male wild-type mice, 4 h): 1.00 | Fold increase Ctestis ([1]; male wild-type mice, 4 h): 1.00 | Kp at 4 h ([1]; male, brain, po, 10 mg/kg, male Abcb1a/1b;Abcg2−/− mice, 4 h, read-out: Brain-to-plasma ratio): 2.13 ± 0.21 | concentration at 4 h ([1]; male, brain, po, 10 mg/kg, male Abcb1a/1b;Abcg2−/− mice, 4 h, read-out: Cbrain): 2760 ± 928 ng/g | Kp at 4 h ([1]; male, brain, po, 10 mg/kg, male Abcb1a/1b−/− mice, 4 h, read-out: Brain-to-plasma ratio): 0.62 ± 0.17 | concentration at 4 h ([1]; male, brain, po, 10 mg/kg, male Abcb1a/1b−/− mice, 4 h, read-out: Cbrain): 394 ± 102 ng/g | Kp at 4 h ([1]; male, brain, po, 10 mg/kg, male Abcg2−/− mice, 4 h, read-out: Brain-to-plasma ratio): 0.14 ± 0.03 | concentration at 4 h ([1]; male, brain, po, 10 mg/kg, male Abcg2−/− mice, 4 h, read-out: Cbrain): 134 ± 18 ng/g | Kp at 4 h ([1]; male, brain, po, 10 mg/kg, male wild-type mice, 4 h, read-out: Brain-to-plasma ratio): 0.15 ± 0.03 | concentration at 4 h ([1]; male, brain, po, 10 mg/kg, male wild-type mice, 4 h, read-out: Cbrain): 95.1 ± 23.5 ng/g | concentration at 4 h ([1]; male, liver, po, 10 mg/kg, male Abcb1a/1b;Abcg2−/− mice, 4 h, read-out: Cliver): 9090 ± 2750 ng/g | Kp at 4 h ([1]; male, liver, po, 10 mg/kg, male Abcb1a/1b;Abcg2−/− mice, 4 h, read-out: Liver-to-plasma ratio): 7.2 ± 1.2 | concentration at 4 h ([1]; male, liver, po, 10 mg/kg, male Abcb1a/1b−/− mice, 4 h, read-out: Cliver): 5580 ± 2030 ng/g | Kp at 4 h ([1]; male, liver, po, 10 mg/kg, male Abcb1a/1b−/− mice, 4 h, read-out: Liver-to-plasma ratio): 8.9 ± 2.4 | concentration at 4 h ([1]; male, liver, po, 10 mg/kg, male Abcg2−/− mice, 4 h, read-out: Cliver): 6690 ± 1210 ng/g | Kp at 4 h ([1]; male, liver, po, 10 mg/kg, male Abcg2−/− mice, 4 h, read-out: Liver-to-plasma ratio): 6.8 ± 0.6 | concentration at 4 h ([1]; male, liver, po, 10 mg/kg, male wild-type mice, 4 h, read-out: Cliver): 6630 ± 1160 ng/g | Kp at 4 h ([1]; male, liver, po, 10 mg/kg, male wild-type mice, 4 h, read-out: Liver-to-plasma ratio): 10.5 ± 1.9 | Cmax [1, 7]: 5230 ± 1240 ng/mL | AUC(0-t) [1, 7]: 14000 ± 3180 ng·h/mL | Cmax [1, 8]: 3630 ± 620 ng/mL | AUC(0-t) [1, 8]: 9200 ± 1640 ng·h/mL | Cmax [1, 9]: 5080 ± 490 ng/mL | Cmax [1, 10]: 3080 ± 1440 ng/mL | AUC(0-t) [1, 10]: 6990 ± 2460 ng·h/mL | Tmax [1, 7]: 60 min | Tmax [1, 8]: 30 min | Tmax [1, 9]: 15 min | Tmax [1, 10]: 30 min | Kp at 4 h ([1]; male, small intestinal content, po, 10 mg/kg, male Abcb1a/1b;Abcg2−/− mice, 4 h, read-out: SIC (%)-to-plasma ratio): 0.0003 ± 9e-05 | Kp at 4 h ([1]; male, small intestinal content, po, 10 mg/kg, male Abcb1a/1b−/− mice, 4 h, read-out: SIC (%)-to-plasma ratio): 0.00186 ± 0.00084 | Kp at 4 h ([1]; male, small intestinal content, po, 10 mg/kg, male Abcg2−/− mice, 4 h, read-out: SIC (%)-to-plasma ratio): 0.00475 ± 0.00154 | Kp at 4 h ([1]; male, small intestinal content, po, 10 mg/kg, male wild-type mice, 4 h, read-out: SIC (%)-to-plasma ratio): 0.00879 ± 0.00241 | concentration at 4 h ([1]; male, testis, po, 10 mg/kg, male Abcb1a/1b;Abcg2−/− mice, 4 h, read-out: Ctestis): 1670 ± 386 ng/g | Kp at 4 h ([1]; male, testis, po, 10 mg/kg, male Abcb1a/1b;Abcg2−/− mice, 4 h, read-out: Testis-to-plasma ratio): 1.35 ± 0.31 | concentration at 4 h ([1]; male, testis, po, 10 mg/kg, male Abcb1a/1b−/− mice, 4 h, read-out: Ctestis): 380 ± 122 ng/g | Kp at 4 h ([1]; male, testis, po, 10 mg/kg, male Abcb1a/1b−/− mice, 4 h, read-out: Testis-to-plasma ratio): 0.58 ± 0.14 | concentration at 4 h ([1]; male, testis, po, 10 mg/kg, male Abcg2−/− mice, 4 h, read-out: Ctestis): 166 ± 27 ng/g | Kp at 4 h ([1]; male, testis, po, 10 mg/kg, male Abcg2−/− mice, 4 h, read-out: Testis-to-plasma ratio): 0.17 ± 0.02 | concentration at 4 h ([1]; male, testis, po, 10 mg/kg, male wild-type mice, 4 h, read-out: Ctestis): 155 ± 55 ng/g | Kp at 4 h ([1]; male, testis, po, 10 mg/kg, male wild-type mice, 4 h, read-out: Testis-to-plasma ratio): 0.24 ± 0.07 | SIC (% of dose) ([1]; small intestinal content, male Abcb1a/1b;Abcg2−/− mice, 4 h, 10 mg/kg): 0.4 % of dose and 0.41 ± 0.23 ^(##) % of dose | SIC (% of dose) ([1]; small intestinal content, male Abcb1a/1b−/− mice, 4 h, 10 mg/kg): 1.1 % of dose and 1.13 ± 0.40 % of dose | SIC (% of dose) ([1]; small intestinal content, male Abcg2−/− mice, 4 h, 10 mg/kg): 4.8 % of dose and 4.84 ± 2.21 % of dose | Tmax ([2]; plasma, 10 mg/kg, all tested mouse strains, oral administration): ~30 min | plasma levels, female relative to male mice ([2]; same oral dose 10 mg/kg, Figure 3 vs Figure S1): about 1.6 fold | confirmed objective response rate (ORR) ([3]; TKI-naïve ROS1 + NSCLC patients): 86% | confirmed objective response rate (ORR) ([3]; TKI-pretreated patients): 50% | treatment-related adverse events, severity ([3]; majority of events, manageable): grade 1 or grade 2 | most common adverse effect ([3]; on-going phase I clinical trial (NCT03063116)): dizziness | patients with prominent clinical activity ([3]; patients who had disease progression on prior TRK inhibitors): 50%
